US9296723B2, “NAMPT inhibitors” (AbbVie Inc., priority 2012, dated 2016)
pIC50: −log10 of the molar value.

Columns and labels:
NAMPT [1] = target: T1, NAMPT (Homo sapiens, UniProt P43490); test: Time-Resolved Fluorescence Resonance Energy Transfer (TR-FRET) Binding Assay of NAMPT; details: 6.8 nM NAMPT, 200 nM probe, equilibrated 3 hours, no substrates
Outline: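 Compound was mixed with enzyme, probe and antibody and equilibrated 3 h at room temperature. TR-FRET read at Ex 337 nm, Em 520/495 nm. Ratios were normalized to controls and fitted to a four-parameter logistic equation for IC50.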

NAMPT [2] = target: T1, NAMPT; test: TR-FRET Binding Assay of NAMPT with PRPP; details: 2 nM NAMPT, 2 nM probe, 200 µM PRPP and 2.5 mM ATP, equilibrated 16 hours
Outline: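 TR-FRET probe displacement with 2 nM NAMPT, 2 nM probe and 1 nM Tb-anti-His antibody in the presence of 200 µM PRPP and 2.5 mM ATP, 2% DMSO (all final). Equilibrated 16 hours before reading to permit possible enzymatic modification of compounds.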

PC3 cells = test: NAMPT Cell Proliferation Assay (Cell Titer Glo); format: cell-based; details: Homo sapiens, PC-3, 120 h, incubated 5 days, cell viability
Outline: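 PC3 cells (500/well, RPMI with 10% heat-inactivated FBS) were exposed to 10-fold compound dilutions from […] for 5 days at 37 °C, 5% CO2. Viability was read with Cell Titer Glo; IC50 from sigmoidal fit of percent inhibition.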

T1 sequence (P43490 whole entry): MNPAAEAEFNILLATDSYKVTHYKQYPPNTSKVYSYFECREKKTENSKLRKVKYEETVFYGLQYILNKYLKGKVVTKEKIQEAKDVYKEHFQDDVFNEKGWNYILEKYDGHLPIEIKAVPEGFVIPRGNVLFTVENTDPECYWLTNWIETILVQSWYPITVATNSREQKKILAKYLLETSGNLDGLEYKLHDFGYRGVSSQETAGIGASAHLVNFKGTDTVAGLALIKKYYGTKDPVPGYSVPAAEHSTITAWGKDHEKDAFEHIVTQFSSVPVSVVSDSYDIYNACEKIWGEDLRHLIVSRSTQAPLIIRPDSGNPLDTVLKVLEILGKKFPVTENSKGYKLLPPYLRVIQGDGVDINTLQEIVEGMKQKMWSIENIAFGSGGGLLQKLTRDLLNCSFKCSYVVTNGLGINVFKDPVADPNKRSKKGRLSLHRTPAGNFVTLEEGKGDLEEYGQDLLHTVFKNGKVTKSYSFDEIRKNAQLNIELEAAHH

CCOCC(=O)N1CC(Oc2ccc(NC(=O)N3CC(c4cccnc4)C3)cc2)C1 [Example 119, N-(4-{[1-(ethoxyacetyl)azetidin-3-yl]oxy}phenyl)-3-(pyridin-3-yl)azetidine-1-carboxamide]
pIC50 (NAMPT [1]): 6.93 | pIC50 (NAMPT [2]): 9.01 | pIC50 (PC3 cells): 7.11

CC(C)CCC(=O)N1CCC(Oc2ccc(NC(=O)N3CC(c4cccnc4)C3)cc2)CC1 [Example 42, N-(4-{[1-(4-methylpentanoyl)piperidin-4-yl]oxy}phenyl)-3-(pyridin-3-yl)azetidine-1-carboxamide]
pIC50 (NAMPT [1]): 7.36 | pIC50 (NAMPT [2]): 9.57 | pIC50 (PC3 cells): 7.00

O=C(Nc1ccc(C2CCN(C(=O)[C@H]3CCCO3)C2)cc1)N1CC(c2cccnc2)C1 (stereo partly drawn) [Example 67, 3-(pyridin-3-yl)-N-(4-{1-[(2R)-tetrahydrofuran-2-ylcarbonyl]pyrrolidin-3-yl}phenyl)azetidine-1-carboxamide]
pIC50 (NAMPT [1]): 6.76 | pIC50 (NAMPT [2]): 9.77 | pIC50 (PC3 cells): 7.11

COC(=O)c1ccc(NC(=O)N2CC(c3cccnc3)C2)cc1 [Example 13, methyl 4-({[3-(pyridin-3-yl)azetidin-1-yl]carbonyl}amino)benzoate]
pIC50 (NAMPT [1]): 6.70 | pIC50 (NAMPT [2]): 9.43 | pIC50 (PC3 cells): 6.29

O=C(Nc1ccc(OC2CN(C(=O)c3ccno3)C2)cc1)N1CC(c2cccnc2)C1 [Example 148, N-(4-{[1-(1,2-oxazol-5-ylcarbonyl)azetidin-3-yl]oxy}phenyl)-3-(pyridin-3-yl)azetidine-1-carboxamide]
pIC50 (NAMPT [1]): 7.56 | pIC50 (NAMPT [2]): 9.49 | pIC50 (PC3 cells): 7.78

CCOCCC(=O)N1CCC(c2ccc(NC(=O)N3CC(c4cccnc4)C3)cc2)C1 (stereo not drawn) [Example 274, N-{4-[1-(3-ethoxypropanoyl)pyrrolidin-3-yl]phenyl}-3-(pyridin-3-yl)azetidine-1-carboxamide]
pIC50 (NAMPT [1]): 7.09 | pIC50 (NAMPT [2]): 9.58 | pIC50 (PC3 cells): 7.16

O=C(Nc1ccc(C2CN(C(=O)C3CCCC3)C2)cc1)N1CC(c2cccnc2)C1 [Example 214, N-{4-[1-(cyclopentylcarbonyl)azetidin-3-yl]phenyl}-3-(pyridin-3-yl)azetidine-1-carboxamide]
pIC50 (NAMPT [1]): 7.12 | pIC50 (NAMPT [2]): 9.54 | pIC50 (PC3 cells): 7.36

O=C(Nc1ccc(C2=CCN(C(=O)C3CC3)CC2)cc1)N1CC(c2cccnc2)C1 [Example 25, N-{4-[1-(cyclopropylcarbonyl)-1,2,3,6-tetrahydropyridin-4-yl]phenyl}-3-(pyridin-3-yl)azetidine-1-carboxamide]
pIC50 (NAMPT [1]): 7.43 | pIC50 (NAMPT [2]): 9.44 | pIC50 (PC3 cells): 7.57

O=C(CC(F)(F)F)N1CC=C(c2ccc(NC(=O)N3CC(c4cccnc4)C3)cc2)CC1 [Example 18, 3-(pyridin-3-yl)-N-{4-[1-(3,3,3-trifluoropropanoyl)-1,2,3,6-tetrahydropyridin-4-yl]phenyl}azetidine-1-carboxamide]
pIC50 (NAMPT [1]): 7.44 | pIC50 (NAMPT [2]): 9.53 | pIC50 (PC3 cells): 7.18

O=C(Nc1ccc(O[C@@H]2CCN(C(=O)C3CCCCC3)C2)cc1)N1CC(c2cccnc2)C1 [Example 332, N-(4-{[(3R)-1-(cyclohexylcarbonyl)pyrrolidin-3-yl]oxy}phenyl)-3-(pyridin-3-yl)azetidine-1-carboxamide]
pIC50 (NAMPT [1]): 7.21 | pIC50 (NAMPT [2]): 9.32 | pIC50 (PC3 cells): 7.65

O=C(Nc1ccc(OC2CN(C(=O)c3ccsc3)C2)cc1)N1CC(c2cccnc2)C1 [Example 146, 3-(pyridin-3-yl)-N-(4-{[1-(thiophen-3-ylcarbonyl)azetidin-3-yl]oxy}phenyl)azetidine-1-carboxamide]
pIC50 (NAMPT [1]): 7.82 | pIC50 (NAMPT [2]): 9.57 | pIC50 (PC3 cells): 8.04

CC(C)(C)C(=O)N1CCC(c2ccc(NC(=O)N3CC(c4cccnc4)C3)cc2)C1 (stereo not drawn) [Example 282, N-{4-[1-(2,2-dimethylpropanoyl)pyrrolidin-3-yl]phenyl}-3-(pyridin-3-yl)azetidine-1-carboxamide]
pIC50 (NAMPT [1]): 7.58 | pIC50 (NAMPT [2]): 9.66 | pIC50 (PC3 cells): 7.84

O=C(CC(F)(F)F)N1CCC(c2ccc(NC(=O)N3CC(c4cccnc4)C3)cc2)C1 (stereo not drawn) [Example 72, 3-(pyridin-3-yl)-N-{4-[1-(3,3,3-trifluoropropanoyl)pyrrolidin-3-yl]phenyl}azetidine-1-carboxamide]
pIC50 (NAMPT [1]): 7.18 | pIC50 (NAMPT [2]): 9.68 | pIC50 (PC3 cells): 7.11

O=C(Nc1ccc(O[C@H]2CCN(C(=O)[C@@H]3CCCO3)C2)cc1)N1CC(c2cccnc2)C1 [Example 90, 3-(pyridin-3-yl)-N-[4-({(3S)-1-[(2S)-tetrahydrofuran-2-ylcarbonyl]pyrrolidin-3-yl}oxy)phenyl]azetidine-1-carboxamide]
pIC50 (NAMPT [1]): 6.39 | pIC50 (NAMPT [2]): 9.71 | pIC50 (PC3 cells): 6.16

O=C1CC[C@@H](C(=O)N2CC[C@@H](Oc3ccc(NC(=O)N4CC(c5cccnc5)C4)cc3)C2)N1 [Example 313, N-(4-{[(3R)-1-(5-oxo-L-prolyl)pyrrolidin-3-yl]oxy}phenyl)-3-(pyridin-3-yl)azetidine-1-carboxamide]
pIC50 (NAMPT [1]): 6.43 | pIC50 (NAMPT [2]): 9.73 | pIC50 (PC3 cells): 5.34

O=C(Nc1ccc(C2CCN(C(=O)c3ccoc3)CC2)cc1)N1CC(c2cccnc2)C1 [Example 182, N-{4-[1-(furan-3-ylcarbonyl)piperidin-4-yl]phenyl}-3-(pyridin-3-yl)azetidine-1-carboxamide]
pIC50 (NAMPT [1]): 8.43 | pIC50 (NAMPT [2]): 9.66 | pIC50 (PC3 cells): 8.16

CC[C@H](C)C(=O)N1CC[C@@H](Oc2ccc(NC(=O)N3CC(c4cccnc4)C3)cc2)C1 [Example 86, N-[4-({(3R)-1-[(2S)-2-methylbutanoyl]pyrrolidin-3-yl}oxy)phenyl]-3-(pyridin-3-yl)azetidine-1-carboxamide]
pIC50 (NAMPT [1]): 7.56 | pIC50 (NAMPT [2]): 9.61 | pIC50 (PC3 cells): 8.26

O=C(CC1CCCC1)N1CC[C@@H](Oc2ccc(NC(=O)N3CC(c4cccnc4)C3)cc2)C1 [Example 300, N-(4-{[(3R)-1-(cyclopentylacetyl)pyrrolidin-3-yl]oxy}phenyl)-3-(pyridin-3-yl)azetidine-1-carboxamide]
pIC50 (NAMPT [1]): 7.28 | pIC50 (NAMPT [2]): 9.47 | pIC50 (PC3 cells): 7.77

O=C(CC1CC1)N1CC(c2ccc(NC(=O)N3CC(c4cccnc4)C3)cc2)C1 [Example 105, N-{4-[1-(cyclopropylacetyl)azetidin-3-yl]phenyl}-3-(pyridin-3-yl)azetidine-1-carboxamide]
pIC50 (NAMPT [1]): 7.17 | pIC50 (NAMPT [2]): 9.68 | pIC50 (PC3 cells): 7.22

Cc1ccsc1C(=O)N1CCC(c2ccc(NC(=O)N3CC(c4cccnc4)C3)cc2)C1 (stereo not drawn) [Example 270, N-(4-{1-[(3-methylthiophen-2-yl)carbonyl]pyrrolidin-3-yl}phenyl)-3-(pyridin-3-yl)azetidine-1-carboxamide]
pIC50 (NAMPT [1]): 8.09 | pIC50 (NAMPT [2]): 9.71 | pIC50 (PC3 cells): 7.71

CCC(CC)CN1CC(c2ccc(NC(=O)N3CC(c4cccnc4)C3)cc2)C1 [Example 253, N-{4-[1-(2-ethylbutyl)azetidin-3-yl]phenyl}-3-(pyridin-3-yl)azetidine-1-carboxamide]
pIC50 (NAMPT [1]): 6.27 | pIC50 (NAMPT [2]): 9.68 | pIC50 (PC3 cells): 6.21

O=C(Nc1ccc(OC2CN(C(=O)C3CCCCC3)C2)cc1)N1CC(c2cccnc2)C1 [Example 139, N-(4-{[1-(cyclohexylcarbonyl)azetidin-3-yl]oxy}phenyl)-3-(pyridin-3-yl)azetidine-1-carboxamide]
pIC50 (NAMPT [1]): 7.84 | pIC50 (NAMPT [2]): 9.35 | pIC50 (PC3 cells): 8.11

O=C(CC(F)(F)F)N1CCC(Oc2ccc(NC(=O)N3CC(c4cccnc4)C3)cc2)CC1 [Example 6, 3-(pyridin-3-yl)-N-(4-{[1-(3,3,3-trifluoropropanoyl)piperidin-4-yl]oxy}phenyl)azetidine-1-carboxamide]
pIC50 (NAMPT [1]): 7.27 | pIC50 (NAMPT [2]): 9.65 | pIC50 (PC3 cells): 7.51

O=C(CC(F)(F)F)N1CC(c2ccc(NC(=O)N3CC(c4cccnc4)C3)cc2)C1 [Example 108, 3-(pyridin-3-yl)-N-{4-[1-(3,3,3-trifluoropropanoyl)azetidin-3-yl]phenyl}azetidine-1-carboxamide]
pIC50 (NAMPT [1]): 6.91 | pIC50 (NAMPT [2]): 9.39 | pIC50 (PC3 cells): 7.09

CC(=O)N1CCC(c2ccc(NC(=O)N3CC(c4cccnc4)C3)cc2)CC1 [Example 183, N-[4-(1-acetylpiperidin-4-yl)phenyl]-3-(pyridin-3-yl)azetidine-1-carboxamide]
pIC50 (NAMPT [1]): 7.66 | pIC50 (NAMPT [2]): 9.42 | pIC50 (PC3 cells): 7.20

O=C(Nc1ccc(C2CN(C(=O)c3ccco3)C2)cc1)N1CC(c2cccnc2)C1 [Example 224, N-{4-[1-(furan-2-ylcarbonyl)azetidin-3-yl]phenyl}-3-(pyridin-3-yl)azetidine-1-carboxamide]
pIC50 (NAMPT [1]): 7.59 | pIC50 (NAMPT [2]): 9.48 | pIC50 (PC3 cells): 7.68

O=C(Nc1ccc(O[C@@H]2CCN(C(=O)C3CC3)C2)cc1)N1CC(c2cccnc2)C1 [Example 85, N-(4-{[(3R)-1-(cyclopropylcarbonyl)pyrrolidin-3-yl]oxy}phenyl)-3-(pyridin-3-yl)azetidine-1-carboxamide]
pIC50 (NAMPT [1]): 6.93 | pIC50 (NAMPT [2]): 9.49 | pIC50 (PC3 cells): 7.31

CC(C)C(C)C(=O)N1CCC(c2ccc(NC(=O)N3CC(c4cccnc4)C3)cc2)C1 (stereo not drawn) [Example 296, N-{4-[1-(2,3-dimethylbutanoyl)pyrrolidin-3-yl]phenyl}-3-(pyridin-3-yl)azetidine-1-carboxamide]
pIC50 (NAMPT [1]): 7.58 | pIC50 (NAMPT [2]): 9.61 | pIC50 (PC3 cells): 7.70

CC(C)CCC(=O)N1CC(Oc2ccc(NC(=O)N3CC(c4cccnc4)C3)cc2)C1 [Example 124, N-(4-{[1-(4-methylpentanoyl)azetidin-3-yl]oxy}phenyl)-3-(pyridin-3-yl)azetidine-1-carboxamide]
pIC50 (NAMPT [1]): 7.83 | pIC50 (NAMPT [2]): 9.43 | pIC50 (PC3 cells): 8.11
